Laboratory results as given in PMC6013220, “Activation of TREK currents by riluzole in three subgroups of cultured mouse nodose ganglion neurons” (PLoS ONE, 2018).

How the values were obtained:
[1] = system: T1, TREK subfamily channels (TREK-1, TREK-2 and TRAAK); assay: whole-cell perforated patch clamp, outward current in native neurons; format: cell-based, Mus musculus; details: activator, unreliable (extrapolated), holding -30 mV, blocker cocktail, room temperature
T1 construct: gene Kcnk2; native channels in cultured nodose ganglion neurons; the authors argue mainly TREK-1, subtype not proven

human TRESK (KCNK18) = biological target: T2, human TRESK (KCNK18) (Homo sapiens, UniProt Q7Z418); assay: whole-cell patch clamp, current at -40 mV; format: cell-based
T2 construct: full-length cDNA in pcDNA3.1, co-transfected with separate GFP cDNA in tsA201 cells
T2 sequence (Q7Z418 1-384): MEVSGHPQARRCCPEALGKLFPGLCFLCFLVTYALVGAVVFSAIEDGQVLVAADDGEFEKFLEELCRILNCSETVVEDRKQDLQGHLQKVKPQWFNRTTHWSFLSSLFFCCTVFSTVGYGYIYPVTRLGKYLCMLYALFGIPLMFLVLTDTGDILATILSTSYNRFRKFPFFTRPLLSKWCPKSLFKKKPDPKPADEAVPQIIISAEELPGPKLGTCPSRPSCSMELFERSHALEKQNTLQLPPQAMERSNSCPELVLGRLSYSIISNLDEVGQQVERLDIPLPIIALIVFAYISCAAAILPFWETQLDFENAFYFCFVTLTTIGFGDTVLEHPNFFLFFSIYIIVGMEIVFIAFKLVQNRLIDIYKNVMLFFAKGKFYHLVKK

Question: What does the source list for Nc1nc2ccc(OC(F)(F)F)cc2s1 [riluzole]?
Answer: EC50 [1]: 392.2 ± 182.8 µM; inhibition at 100 µM (human TRESK (KCNK18)): 64%
